# Measured values from patent US6416791B1, “Alimentary integrator” (priority 1999, dated 2002).
# Columns and labels:
# [1] = tested on: patients (symptoms of the disease); experiment: comparison testing of symptom changes in patients treated with potassium citrate or potassium tartarate; format: in vivo, human; details: FIGS. 6 and 7; 4 patients per compound; base condition, 10th and 20th day
# Description: The substitution of one or more components of the compound causes an inefficacy of the relevant different compound.
# The graph of FIG. 6 is relevant to the changes in symptoms among 4 patients treated using potassium citrate, while the graph of FIG. 7 is relevant to the changes in symptoms among 4 patients treated using potassium tartarate. Similarly to the graph of FIG. 5, on abscissa each graph presents the different symptoms; from left to right-thoracic pain, abdominal pain, osteomuscular pain-dyspnea, cough, nausea, emesis, ascites, temperature, asthenia. The columns are composed by three secondary columns which refer to the different time of recording of the data, with 10 days interval; from left to right base condition (at the beginning of the treatment), at 10th day and at 20th day. Also in these cases the rate utilized as ordinate in the graph is relevant to the intensity (amount) of the symptoms.
# [2] = stability of the salt (oxidizability); format: physicochemical; details: due to its easy oxidizability
# [3] = toxicity at the stated dosages; details: given the stated dosages; long-term use
# [4] = water solubility of the salt; format: physicochemical
# [5] = tested on: patients suffering from different types of neoplasia in advanced phase; experiment: testing of potassium ribose ascorbate, given three times a day, in 30 terminally-ill neoplasia patients for more than ten years; format: in vivo, human
# Description: In FIGS. 2-5 and 8-11 are shown the results of a testing carried out for more than ten years. The testing was carried out on a sample of 30 patients suffering from different types of neoplasia in advanced phase (terminally-ill patients).
# The patients were given potassium ribose ascorbate three times a day.
# The integrator of the present invention not only allows a good survival percentage but also improves the symptoms of the diseases. In FIG. 5 is a graph showing the changes in ten symptoms among the patients above mentioned. On abscissa the graph presents the different symptoms; from left to right thoracic pain, abdominal pain, osteomuscular pain, dyspnea, cough, nausea, emesis, ascites, temperature, asthenia. Every column is composed by five secondary columns which refer to the different time of recording of the data, with 15 days interval, from left to right: base condition (at the beginning of the treatment), at 15th day, at 30th day, at 45th and at 60th day The rate utilized as ordinate in the graph is relevant to the intensity (amount) of the symptoms. This rate is a normalized value among the different rates utilized for measuring the ten symptoms (i.e. degrees for the temperature, an objective value for pain, cough, etc). A higher rate means a higher means intensity of the symptom.
# In particular, FIG.8 is relevant to the mean changes in the hemoglobin rate, in the graph, the abscissa is divided in steps corresponding to 15 days intervals, while the ordinate is expressed in g/dl. FIG. 9 is relevant to the mean changes in the white cells number; in the graph, the abscissa is divided in steps corresponding to 15 days intervals, while the ordinate is expressed in number of cells. FIG. 10 is relevant to the mean changes in the red cells number; in the graph, the abscissa is divided in steps corresponding to 15 days intervals, while the ordinate is expressed in thousands of cells. FIG. 11 is relevant to the mean changes in the erythrosedimentation rate at first hour; in the graph, the abscissa is divided in steps corresponding to 15 days intervals, while the ordinate is expressed in erythrosedimentation rate.
compound,measurement,setting,value
O=C([O-])CC(O)(CC(=O)[O-])C(=O)[O-].[K+].[K+].[K+] [potassium citrate],change in intensity of ten symptoms,[1],substantially increasing symptoms rate
O=C([O-])C(O)C(O)C(=O)[O-].[K+].[K+] (stereo not shown) [potassium tartarate],change in intensity of ten symptoms,[1],substantially increasing symptoms rate
potassium ribosate,stability,[2],somewhat unstable
same,toxicity,[3],does not produce any toxicity
same,solubility in water,[4],easily water-soluble
potassium ribose ascorbate,stability,[2],somewhat unstable
same,survival percentage after five years,"[5]; FIG. 2, terminally-ill patients, by location of neoplasia: brain, breast, lung, ovary, prostate, skin",very high
same,survival percentage after ten years,"[5]; FIG. 3, terminally-ill patients, by location of neoplasia: brain, breast, lung, ovary, prostate, skin",very high
same,"change in intensity of ten symptoms (thoracic, abdominal, osteomuscular pain, dyspnea, cough, nausea, emesis, ascites, temperature, asthenia)","[5]; FIG. 5, normalized rate, base condition, 15th, 30th, 45th and 60th day",all symptoms decreased
same,mean changes in the hemoglobin rate,"[5]; FIG. 8, 15 days intervals, ordinate in g/dl",increasing rates
same,mean changes in the white cells number,"[5]; FIG. 9, 15 days intervals, ordinate in number of cells",increasing rates
same,mean changes in the red cells number,"[5]; FIG. 10, 15 days intervals, ordinate in thousands of cells",increasing rates
same,mean changes in the erythrosedimentation rate at first hour,"[5]; FIG. 11, 15 days intervals",decreasing rate
